Results from paper PMC5241706, “Biochemical and Structural Characterization of Selective Allosteric Inhibitors of the Plasmodium falciparum Drug Target, Prolyl-tRNA-synthetase” (ACS Infectious Diseases, 2016).

Assays:
PfProRS = target: T1, PfProRS (Plasmodium falciparum, UniProt Q8I5R7); test: luciferase ATP depletion assay, HTS format; type: biochemical
T1 construct: B2, AA7–746 (minus 6 amino acids, or 99% of the ORF); made in house; host or cells: E. coli BL21(DE3)R3 Rosetta Oxford

HsProRS = target: T2, HsProRS (Homo sapiens, UniProt P07814); test: luciferase ATP depletion assay, counter-screen; type: biochemical; details: for inhibition at 0.03 µM: at 0.03 μM (22.50 μM series); for inhibition at 2.5 µM: at 2.50 μM (22.50 μM series); for inhibition at 7.5 µM: at 7.50 μM; for inhibition at 22.5 µM: at 22.50 μM; for inhibition at 1.46 µM: at 1.46 μM (750 μM series); for inhibition at 187.5 µM: at 187.50 μM
T2 construct: made in house
T2 sequence (P07814 1007-1512 limits assumed): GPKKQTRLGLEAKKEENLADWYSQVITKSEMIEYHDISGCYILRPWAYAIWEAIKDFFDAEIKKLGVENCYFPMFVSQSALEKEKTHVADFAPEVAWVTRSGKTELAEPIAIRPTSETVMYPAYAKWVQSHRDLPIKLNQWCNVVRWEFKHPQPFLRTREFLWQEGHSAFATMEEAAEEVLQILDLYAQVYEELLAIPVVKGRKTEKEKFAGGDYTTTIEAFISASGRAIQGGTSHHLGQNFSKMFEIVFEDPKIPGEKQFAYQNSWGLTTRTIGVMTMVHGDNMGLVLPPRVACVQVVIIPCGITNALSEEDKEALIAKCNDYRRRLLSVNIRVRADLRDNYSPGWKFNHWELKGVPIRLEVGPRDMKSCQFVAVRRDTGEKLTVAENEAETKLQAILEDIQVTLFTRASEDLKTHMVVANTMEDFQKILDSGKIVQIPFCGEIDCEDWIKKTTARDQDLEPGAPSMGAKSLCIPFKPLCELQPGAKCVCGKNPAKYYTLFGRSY

[1] = read-out: Percentage inhibition Pf ProRS
[2] = read-out: Percentage inhibition Hs ProRS

T1 sequence (Q8I5R7 7-746): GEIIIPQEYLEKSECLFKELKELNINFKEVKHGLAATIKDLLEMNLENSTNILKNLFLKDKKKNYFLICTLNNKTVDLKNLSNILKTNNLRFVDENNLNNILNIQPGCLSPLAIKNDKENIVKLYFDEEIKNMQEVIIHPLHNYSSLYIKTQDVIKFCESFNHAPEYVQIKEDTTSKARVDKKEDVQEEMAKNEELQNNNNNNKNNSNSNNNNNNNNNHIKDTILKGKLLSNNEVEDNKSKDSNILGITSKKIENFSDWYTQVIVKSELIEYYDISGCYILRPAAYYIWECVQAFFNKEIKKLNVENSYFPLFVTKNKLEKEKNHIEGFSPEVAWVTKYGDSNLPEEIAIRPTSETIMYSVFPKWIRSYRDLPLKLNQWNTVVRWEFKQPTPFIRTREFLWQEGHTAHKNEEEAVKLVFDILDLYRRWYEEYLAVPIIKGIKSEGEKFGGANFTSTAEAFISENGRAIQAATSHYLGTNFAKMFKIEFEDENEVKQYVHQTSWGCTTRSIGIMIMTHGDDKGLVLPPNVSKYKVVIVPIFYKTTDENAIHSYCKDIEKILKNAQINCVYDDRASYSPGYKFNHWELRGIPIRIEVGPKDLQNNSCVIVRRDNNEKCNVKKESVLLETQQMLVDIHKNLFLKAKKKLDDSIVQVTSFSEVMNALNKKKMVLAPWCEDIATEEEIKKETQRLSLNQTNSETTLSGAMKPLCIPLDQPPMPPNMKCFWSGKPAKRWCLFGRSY

O=C(CCn1cncn1)N1CCCC(c2[nH]c3ccccc3c2-c2ccncc2)C1 (stereo not shown) [TCMDC-125377]
inhibition at 0.28 µM (PfProRS; [1]): 6.8%
inhibition at 0.03 µM (PfProRS; [1]): 1.17%
inhibition at 0.09 µM (PfProRS; [1]): 2.41%
inhibition at 0.83 µM (PfProRS; [1]): 15.4%
inhibition at 2.5 µM (PfProRS; [1]): 24.7%
inhibition at 7.5 µM (PfProRS; [1]): 33.9%
inhibition at 22.5 µM (PfProRS; [1]): 40.1%
inhibition at 0.03 µM (HsProRS; [2]): 0.18%
inhibition at 0.09 µM (HsProRS; [2]): -0.1%
inhibition at 0.28 µM (HsProRS; [2]): -0.22%
inhibition at 0.83 µM (HsProRS; [2]): -0.91%
inhibition at 2.5 µM (HsProRS; [2]): -0.37%
inhibition at 7.5 µM (HsProRS; [2]): 0.2%
inhibition at 22.5 µM (HsProRS; [2]): 0.03%

N[C@@H](COc1cccc2c(-c3ccncc3)c(-c3cccc(NC(=O)Nc4ccccc4)c3)nn12)c1ccccc1 [TCMDC-135512]
inhibition at 0.28 µM (PfProRS; [1]): 2.37%
inhibition at 0.03 µM (PfProRS; [1]): 1.13%
inhibition at 0.09 µM (PfProRS; [1]): 2.63%
inhibition at 0.83 µM (PfProRS; [1]): 3.62%
inhibition at 2.5 µM (PfProRS; [1]): 11.8%
inhibition at 7.5 µM (PfProRS; [1]): 40.4%
inhibition at 22.5 µM (PfProRS; [1]): 56.8%
inhibition at 0.03 µM (HsProRS; [2]): -0.42%
inhibition at 0.09 µM (HsProRS; [2]): 0.03%
inhibition at 0.28 µM (HsProRS; [2]): -0.52%
inhibition at 0.83 µM (HsProRS; [2]): -0.24%
inhibition at 2.5 µM (HsProRS; [2]): -0.12%
inhibition at 7.5 µM (HsProRS; [2]): -0.42%
inhibition at 22.5 µM (HsProRS; [2]): -0.2%

CCCCC(N)COc1cccc2c(-c3ccncc3)c(-c3cccc(NC(=O)Nc4ccccc4)c3)nn12 (stereo not shown) [TCMDC-135537]
inhibition at 0.28 µM (PfProRS; [1]): -1.18%
inhibition at 0.03 µM (PfProRS; [1]): -1.72%
inhibition at 0.09 µM (PfProRS; [1]): -1.11%
inhibition at 0.83 µM (PfProRS; [1]): 1.73%
inhibition at 2.5 µM (PfProRS; [1]): 11.7%
inhibition at 7.5 µM (PfProRS; [1]): 39%
inhibition at 22.5 µM (PfProRS; [1]): 84.8%
inhibition at 0.03 µM (HsProRS; [2]): -0.2%
inhibition at 0.09 µM (HsProRS; [2]): -0.49%
inhibition at 0.28 µM (HsProRS; [2]): 0.03%
inhibition at 0.83 µM (HsProRS; [2]): 0.8%
inhibition at 2.5 µM (HsProRS; [2]): 0%
inhibition at 7.5 µM (HsProRS; [2]): 0.28%
inhibition at 22.5 µM (HsProRS; [2]): 0.55%

N#CC(c1ccc(Cl)cc1)c1c(Cl)cc(-n2ncc(=O)[nH]c2=O)cc1Cl (stereo not shown) [diclazuril]
inhibition at 0.49 µM (PfProRS; [1]): 0.21%
inhibition at 0.98 µM (PfProRS; [1]): -1.18%
inhibition at 1.95 µM (PfProRS; [1]): -0.74%
inhibition at 3.91 µM (PfProRS; [1]): -0.59%
inhibition at 7.81 µM (PfProRS; [1]): 2.35%
inhibition at 15.63 µM (PfProRS; [1]): 2.75%
inhibition at 31.25 µM (PfProRS; [1]): 7.77%
inhibition at 62.5 µM (PfProRS; [1]): 19.5%
inhibition at 125 µM (PfProRS; [1]): 43%
inhibition at 250 µM (PfProRS; [1]): 73.7%
inhibition at 500 µM (PfProRS; [1]): 80.2%
inhibition at 0.49 µM (HsProRS; at 0.49 μM, read-out: Percentage inhibition Hs ProRS): 0.05%
inhibition at 0.98 µM (HsProRS; at 0.98 μM, read-out: Percentage inhibition Hs ProRS): -0.02%
inhibition at 1.95 µM (HsProRS; at 1.95 μM, read-out: Percentage inhibition Hs ProRS): 0.08%
inhibition at 3.91 µM (HsProRS; at 3.91 μM, read-out: Percentage inhibition Hs ProRS): 0.28%
inhibition at 7.81 µM (HsProRS; at 7.81 μM, read-out: Percentage inhibition Hs ProRS): 0.42%
inhibition at 15.63 µM (HsProRS; at 15.63 μM, read-out: Percentage inhibition Hs ProRS): 0.09%
inhibition at 31.25 µM (HsProRS; at 31.25 μM, read-out: Percentage inhibition Hs ProRS): 0.4%
inhibition at 62.5 µM (HsProRS; at 62.50 μM, read-out: Percentage inhibition Hs ProRS): 0.07%
inhibition at 125 µM (HsProRS; at 125 μM, read-out: Percentage inhibition Hs ProRS): 0.68%
inhibition at 250 µM (HsProRS; at 250 μM, read-out: Percentage inhibition Hs ProRS): 5.06%
inhibition at 500 µM (HsProRS; at 500 μM, read-out: Percentage inhibition Hs ProRS): 9.51%

Cc1c(Nc2ncccc2C(=O)O)cccc1C(F)(F)F [flunixin meglumine]
inhibition at 0.73 µM (PfProRS; [1]): 0.6%
inhibition at 1.46 µM (PfProRS; [1]): -0.28%
inhibition at 2.93 µM (PfProRS; [1]): -0.7%
inhibition at 5.86 µM (PfProRS; [1]): -0.41%
inhibition at 11.72 µM (PfProRS; [1]): 1.63%
inhibition at 23.44 µM (PfProRS; [1]): 2.17%
inhibition at 46.88 µM (PfProRS; [1]): 11.4%
inhibition at 93.75 µM (PfProRS; [1]): 30.7%
inhibition at 187.5 µM (PfProRS; [1]): 62%
inhibition at 375 µM (PfProRS; [1]): 87.1%
inhibition at 750 µM (PfProRS; [1]): 99.8%
inhibition at 0.73 µM (HsProRS; [2]): 0.21%
inhibition at 1.46 µM (HsProRS; [2]): 0.19%
inhibition at 2.93 µM (HsProRS; [2]): 0.2%
inhibition at 5.86 µM (HsProRS; [2]): 0.17%
inhibition at 11.72 µM (HsProRS; [2]): 0.37%
inhibition at 23.44 µM (HsProRS; [2]): 0.52%
inhibition at 46.88 µM (HsProRS; [2]): 0.27%
inhibition at 93.75 µM (HsProRS; [2]): -0.02%
inhibition at 187.5 µM (HsProRS; [2]): 0.03%
inhibition at 375 µM (HsProRS; [2]): 0.43%
inhibition at 750 µM (HsProRS; [2]): 1.37%

COc1ccc(Cl)cc1C(=O)NCCc1ccc(S(=O)(=O)NC(=O)NC2CCCCC2)cc1 [glyburide]
IC50 (PfProRS; PfProRS IC50, 75 nM ProRS, 60 μM proline, 6 μM ATP, 400 μg/mL yeast tRNA, 2 h 37 °C): 34 µM
inhibition at 0.73 µM (PfProRS; [1]): 1.32%
inhibition at 1.46 µM (PfProRS; [1]): 1.82%
inhibition at 2.93 µM (PfProRS; [1]): 6.24%
inhibition at 5.86 µM (PfProRS; [1]): 12.4%
inhibition at 11.72 µM (PfProRS; [1]): 23.8%
inhibition at 23.44 µM (PfProRS; [1]): 39.7%
inhibition at 46.88 µM (PfProRS; [1]): 60%
inhibition at 93.75 µM (PfProRS; [1]): 81.4%
inhibition at 187.5 µM (PfProRS; [1]): 87%
inhibition at 375 µM (PfProRS; [1]): 94%
inhibition at 750 µM (PfProRS; [1]): 102%
IC50 (HsProRS): > 700 µM
inhibition at 0.73 µM (HsProRS; [2]): 0.05%
inhibition at 1.46 µM (HsProRS; [2]): 0.03%
inhibition at 2.93 µM (HsProRS; [2]): -0.04%
inhibition at 5.86 µM (HsProRS; [2]): 0.29%
inhibition at 11.72 µM (HsProRS; [2]): 0.01%
inhibition at 23.44 µM (HsProRS; [2]): 0.12%
inhibition at 46.88 µM (HsProRS; [2]): 0.36%
inhibition at 93.75 µM (HsProRS; [2]): 1.41%
inhibition at 187.5 µM (HsProRS; [2]): 4.93%
inhibition at 375 µM (HsProRS; [2]): 15.1%
inhibition at 750 µM (HsProRS; [2]): 36.1%
inhibitory activity for HsProRS (HsProRS; up to the limit of solubility (>1 mM)): < 40%

CCCc1nc2c(C)cc(-c3nc4ccccc4n3C)cc2n1Cc1ccc(-c2ccccc2C(=O)O)cc1 [telmisartan]
inhibition at 0.73 µM (PfProRS; [1]): -0.36%
inhibition at 1.46 µM (PfProRS; [1]): -0.06%
inhibition at 2.93 µM (PfProRS; [1]): -0.17%
inhibition at 5.86 µM (PfProRS; [1]): -0.08%
inhibition at 11.72 µM (PfProRS; [1]): 2.19%
inhibition at 23.44 µM (PfProRS; [1]): 3.94%
inhibition at 46.88 µM (PfProRS; [1]): 13.4%
inhibition at 93.75 µM (PfProRS; [1]): 48.8%
inhibition at 187.5 µM (PfProRS; [1]): 80.8%
inhibition at 375 µM (PfProRS; [1]): 15.5%
inhibition at 750 µM (PfProRS; [1]): 11.8%
inhibition at 0.73 µM (HsProRS; [2]): 0.44%
inhibition at 1.46 µM (HsProRS; [2]): 0.05%
inhibition at 2.93 µM (HsProRS; [2]): 0.04%
inhibition at 5.86 µM (HsProRS; [2]): -0.1%
inhibition at 11.72 µM (HsProRS; [2]): 0.01%
inhibition at 23.44 µM (HsProRS; [2]): 0%
inhibition at 46.88 µM (HsProRS; [2]): -0.02%
inhibition at 93.75 µM (HsProRS; [2]): 0.37%
inhibition at 187.5 µM (HsProRS; [2]): 4.23%
inhibition at 375 µM (HsProRS; [2]): 0.25%
inhibition at 750 µM (HsProRS; [2]): 0.58%
